Laboratory results published in US20230270721A1, “INHIBITION OF BAX-MEDIATED CELL DEATH BY ELTROMBOPAG” (Albert Einstein College of Medicine, priority 2020, published 2023).

What was measured:
BAX [1] = biological target: T1, BAX (Homo sapiens, UniProt Q07812); test: Liposomal permeabilization (ANTS/DPX release) assay; assay type: biochemical; details: 50 nM BAX and 5 nM tBID; compared with EO
T1 construct: Human full-length (1-192) wild-type BAX (Q07812); made in house; host or cells: E. coli BL21 (DE3) CodonPlus (DE3)-RIPL
Protocol: Lipids (Avanti Polar Lipids) at the following ratio, phosphatidylcholine 48%, phosphatidylinositol 10%, dioleoyl phosphatidylserine 10%, phosphatidylethanolamine, 28%, and tetraoleoyl cardiolipin 4%, were mixed in a total of 1 mg, dried and resuspended in 10 mM HEPES, pH 7, 200 mM KCI, and 5 mM MgCl2 with 12.5 mM 8-aminonaphthalene-1,3,6-trisulfonic acid (ANTS) dye and 45 mM p-xylene-bis-pyridinium bromide (DPX) quencher (Molecular Probes) using a water bath sonicator. Liposomes were formed by extrusion of the suspension using Avanti Mini-Extruder (Cat # 610000) with polycarbonate membranes of 0.1 µm pore size (Avanti Polar Lipids). ANTS/DPX encapsulated liposomes were purified from non-encapsulated ANTS/DPX by gel filtration of a 10 mL CL2B-Sepharose (GE Healthcare Life Sciences) gravity-flow column. BAX (50-250 nM) was combined with tBID, BIM, and EO at the indicated concentrations to a volume of 90 µL. Reactions were initiated by the addition of […] of the encapsulated ANTS/DPX liposome stock. ANTS/DPX release was quantified based on the increase in fluorescence intensity that occurs when the ANTS fluorophore is separated from the DPX quencher upon release from the liposomes into solution. Fluorescence (λex = 355 nm and λem = 520 nm) was measured at 1 minute intervals at room temperature (22-25° C.) indicated using a Tecan Infinite M1000 plate reader. In the case of heat activation, reactions were set up as described in the absence of tBID or BIM, and experiments were recorded at 42° C. The percentage release of ANTS/DPX at any given time point was calculated as percentage release=((F-F0)/(F100-F0))(100), where F0 and F100 are baseline and maximal fluorescence, respectively. Triton X-100 (1%) was used to determine the maximum amount of liposomal release per assay and was set to 100%.
Next, EO’s capacity to modulate BAX activity was evaluated using liposomal release assays. […] Instead, EO was able to inhibit both tBID- and BIM BH3-mediated BAX activation (FIGS. 1E, 1F, and 1G). Inhibition of tBID-mediated BAX activation by EO was inversely proportional to the concentration of the tBID activator, consistent with competitive inhibition of BH3-activator binding.

BAX [2] = biological target: T1, BAX; test: Competitive fluorescence polarization binding assay (FPA), BAX / FITC-BIM-SAHB; details: BAX 150 nM, FITC-BIM-SAHB 25 nM; read-out: IC50, competition of FITC-BIM-SAHB by FPA
Protocol: Fluorescence polarization assays (FPA) were performed as previously described (Gavathiotis, E., et al. Nat Chem Biol 8, 639-645 (2012)). Direct binding isotherms of BIM-SAHB were measured by incubated FITC-BIM-SAHB (25 nM) with serial dilutions of full-length BAX alone or in the presence of 0.5 or 1 µM EO. Competition binding assays were performed by titrating ED into BAX (150 nM) and FITC-BIM-SAHB (25 nM). Measurements were taken at 10-minute intervals over 60 minutes on a TECAN F200 PRO microplate reader. Reported curves represent 10-minute time point. KD values and IC50 were determined using GraphPad Prism nonlinear fit four-parameter agonist or antagonist versus response with restraints for 100% and 0% bound calculated by the mP of saturated BAX + FITC-BIM-SAHB and FITC-BIM-SAHB alone.
To test this hypothesis, a competitive fluorescence polarization assay (FPA) (Gavathiotis, E., et al. Nat Chem Biol 8, 639-645 (2012)) based on the interaction between BAX and fluorescently-labeled stapled BIM-BH3 peptide (FITC-BIM-SAHB) was used (Gavathiotis, E., et al. Nature 455, 1076-1081 (2008)). […] The IC50 and KD are consistent with a competitive binding mechanism of EO displacing FITC-BIM-SAHB from the N-terminal trigger site of BAX.

[3] = test system: platelets of C57BL/6J mice; test: In vivo mouse platelet experiments; details: ABT-263 25 mg/kg single dose, oral gavage, within 24 hr
Protocol: Wild type black mice strain C57BL/6J were treated with vehicle, ABT-263 (25 mg/kg, single dose), EO (100 mg/kg, then 3 hrs later 50 mg/kg), or a combination of ABT-263 and EO. EO was formulated in dH2O, and ABT-263 was formulated in 10% ethanol, 30% polyethylene glycol 400, and 60% Phosal 50 PG. Both ABT-263 and EO were administered by oral gavage. Blood samples were collected by submandibular bleed before treatment and 24 hours following treatment, and CBC was acquired. Percentage platelet protection was calculated as follows: % Platelet Protection = (100)(Px - mPABT)/(mPv - mPABT) where Px is the platelet count for a given mouse, mPv is the mean vehicle treated platelet count, and mPABT is the mean ABT-263 treated platelet count. Statistical analysis was performed using one-way ANOVA with select multiple comparisons as shown.
Finally, whether EO can rescue thrombocytopenia induced by the activity of navitoclax was evaluated in mice. The use of navitoclax is limited by on-target toxicity triggering BAK/BAX-mediated platelet apoptosis (Zhang, H. et al. Cell Death Differ 14, 943-951 (2007)). […] This EO effect is distinct from its capacity to stimulate platelet production by differentiation of the megakaryocyte precursors and progenitor cells, which requires 5 days to begin (Erickson-Miller, C. L. et al. Stem Cells 27, 424-430 (2009); Jenkins, J. M. et al. Blood 109, 4739-4741 (2007)).

T1 sequence (Q07812 whole entry): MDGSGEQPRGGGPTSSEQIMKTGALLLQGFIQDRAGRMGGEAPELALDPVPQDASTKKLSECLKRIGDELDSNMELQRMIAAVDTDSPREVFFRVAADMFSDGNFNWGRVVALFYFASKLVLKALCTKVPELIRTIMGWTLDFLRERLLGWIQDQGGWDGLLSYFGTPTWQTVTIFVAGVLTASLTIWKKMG

inhibition of BAX in liposomal release assays (BAX [1]) | IC50 (BAX [2]) [µM] | Compound | platelet loss [3]
significantly diminished inhibition | > 5 | COC(=O)c1cccc(-c2cccc(NN=C3C(=O)N(c4ccc(C)c(C)c4)N=C3C)c2O)c1 [EO-Methyl Ester, eltrombopag methyl ester] | 
 |  | CC1(C)CCC(c2ccc(Cl)cc2)=C(CN2CCN(c3ccc(C(=O)NS(=O)(=O)c4ccc(N[C@H](CCN5CCOCC5)CSc5ccccc5)c(S(=O)(=O)C(F)(F)F)c4)cc3)CC2)C1 [navitoclax] | significant platelet loss
